Read-outs that look alike come from different tables or passages of the source.
Columns and labels:
Aspergillus fumigatus = assay: MIC by broth-dilution method (bactericidal effect), strain F; type: cell-based; settings: read-out: MIC value
Procedure: (§1) The minimum inhibiting concentration (MIC) values of the above compounds and their two- or three-component combinations were determined in phenol-red - glucose broth (product of the Difco Co.) by using the broth-dilution method on the following bacterium strains isolated from chickens: […]

Staphylococcus aureus = assay: MIC by broth-dilution method (bactericidal effect), strain A; type: cell-based; settings: read-out: MIC value
Procedure: as §1

Escherichia coli 1 = assay: MIC by broth-dilution method (bactericidal effect), strain B; type: cell-based
Procedure: as §1

Salmonella typhimurium = assay: MIC by broth-dilution method (bactericidal effect), strain D; type: cell-based; settings: Salmonella enterica, read-out: MIC value
Procedure: (§2) The minimum inhibiting concentration (MIC) values of the above compounds and their two- or three-component combinations were determined in phenol-red - glucose broth (product of the Difco Co.) by using the broth-dilution method on the following bacterium strains isolated from chickens:
(§3) D: Salmonella typhimurium

Pasteurella multocida = assay: MIC by broth-dilution method (bactericidal effect), strain E; type: cell-based; settings: read-out: MIC value
Procedure: as §1

Escherichia coli 2 = assay: MIC by broth-dilution method (bactericidal effect), strain C; type: cell-based
Procedure: as §1

[1] = in vivo
[2] = test system: bacterium strains isolated from chickens; assay: in vitro bacterial growth inhibition over the bacterium strains tested; type: cell-based; settings: single compound
Procedure: as §2, §3

[3] = in vivo; cited from earlier work
[4] = Escherichia coli, 1, read-out: MIC value
[5] = Escherichia coli, 2, read-out: MIC value
[6] = strain F: Aspergillus fumigatus, phenol-red - glucose broth, bactericidal effect
[7] = strain A: Staphylococcus aureus, phenol-red - glucose broth, bactericidal effect
[8] = strain B: Escherichia coli 1, phenol-red - glucose broth, bactericidal effect, read-out: MIC value
[9] = strain D: Salmonella typhimurium, phenol-red - glucose broth, bactericidal effect
[10] = strain E: Pasteurella multocida, phenol-red - glucose broth, bactericidal effect
[11] = strain C: Escherichia coli 2, phenol-red - glucose broth, bactericidal effect, read-out: MIC value

SMILES	MIC (Aspergillus fumigatus; Aspergillus fumigatus)	MIC (Staphylococcus aureus; Staphylococcus aureus)	MIC (Escherichia coli 1; [4])	MIC (Salmonella typhimurium; TYPHIMURIUM)	MIC (Pasteurella multocida; Pasteurella multocida)	MIC (Escherichia coli 2; [5])	dose necessary for the in vitro antibacterial effect [2]	MIC (Aspergillus fumigatus; [6])	MIC (Staphylococcus aureus; [7])	MIC (Escherichia coli 1; [8])	MIC (Salmonella typhimurium; [9])	toxicity; damage of haemopoietic organs and vessel walls [3]	MIC (Pasteurella multocida; [10])	MIC (Escherichia coli 2; [11])	further results
O=S(=O)(O)O.Oc1cccc2cccnc12 [8-Hydroxyquinoline sulfate, 8-hydroxyquinoline sulfate]	25 µg/mL	5 µg/mL	25 µg/mL	50 µg/mL	1 µg/mL	25 µg/mL	–	–	–	–	–	–	–	–	–
Oc1cccc2cccnc12 [8-hydroxyquinoline]	–	–	–	–	–	–	a relatively low dose	–	–	–	–	–	–	–	required therapeutic blood level in the blood plasma [1]: cannot develop in the blood plasma
COc1ccc(Cc2cnc(N)nc2N)cc1OC [Diaveridine, 2,4-diamino-5-(3,4-dimethoxybenzyl)pyrimidine]	200 µg/mL	200 µg/mL	200 µg/mL	200 µg/mL	150 µg/mL	150 µg/mL	a very high dose	–	–	–	–	–	–	–	–
COc1cc(NS(=O)(=O)c2ccc(N)cc2)nc(OC)n1 [Sulfadimethoxine, 2,6-dimethoxy-4-sulfanilamidopyrimidine]	–	–	–	–	–	–	–	200 µg/mL	200 µg/mL	200 µg/mL	200 µg/mL	no damages of the haemopoietic organs and vessel walls	200 µg/mL	200 µg/mL	toxicity compared with other sulfonamides [3]: one of the least toxic ones
COc1cc(Cc2cnc(N)nc2N)cc(OC)c1OC [Trimetoprim, 2,4-diamino-5-(3,4,5-trimethoxybenzyl)pyrimidine]	–	–	–	–	–	–	a very high dose	200 µg/mL	200 µg/mL	200 µg/mL	200 µg/mL	–	100 µg/mL	200 µg/mL	–
Nc1ccc(S(=O)(=O)Nc2cnc3ccccc3n2)cc1 [sulfachinoxaline, N-(2-chinoxalinyl)sulfanilamide]	–	–	–	–	–	–	–	–	–	–	–	the haemopoietic organs and vessel walls of the animals are significantly injured	–	–	–

From patent publication US4871722A, “Synergistic veterinary composition and/or fodder premix and process for preparing same” (priority 1987, dated 1989)
